Measurements published in ChEMBL document CHEMBL6074718, “Discovery and biological evaluation of potent 2-trifluoromethyl acrylamide warhead-containing inhibitors of protein disulfide isomerase” (Eur J Med Chem, 2025).
The source made the active and inactive calls. The calls are words filed in the database; no cut-off is given here.

Legend:
[1] = biological target: T1, Protein disulfide-isomerase (Homo sapiens, UniProt P07237); experiment: Inhibition of recombinant PDI (unknown origin) preincubated for 1 hrs followed by bovine insulin addition and measured after 80 mins by absorbance based reductase assay
Target sequence in this assay (P07237 whole entry): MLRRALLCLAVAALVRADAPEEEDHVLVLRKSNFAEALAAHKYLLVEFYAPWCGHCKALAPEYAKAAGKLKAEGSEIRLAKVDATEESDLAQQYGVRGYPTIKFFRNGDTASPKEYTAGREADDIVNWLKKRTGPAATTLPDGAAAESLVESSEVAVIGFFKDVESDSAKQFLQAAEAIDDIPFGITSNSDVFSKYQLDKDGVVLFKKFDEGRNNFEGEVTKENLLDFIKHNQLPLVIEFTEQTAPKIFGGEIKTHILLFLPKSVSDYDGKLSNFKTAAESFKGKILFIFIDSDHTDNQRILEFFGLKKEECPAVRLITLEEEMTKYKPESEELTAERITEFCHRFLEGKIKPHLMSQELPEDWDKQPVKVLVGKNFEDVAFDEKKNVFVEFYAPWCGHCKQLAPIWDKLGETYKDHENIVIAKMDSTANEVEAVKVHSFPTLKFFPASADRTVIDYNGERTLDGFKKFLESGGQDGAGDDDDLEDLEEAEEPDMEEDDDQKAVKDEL

[2] = Antiplatelet aggregation activity in human Platelet assessed as inhibition of U46619- induced aggregation preincubated for 3 mins followed by U46619 addition by turbidimetric aggregometry
[3] = biological target: T2, Protein disulfide-isomerase A6 (Homo sapiens, UniProt Q15084); experiment: Inhibition of recombinant PDIA6 (unknown origin) preincubated for 1 hrs followed by bovine insulin addition and measured after 80 mins by absorbance based reductase assay
T2 sequence (Q15084 whole entry): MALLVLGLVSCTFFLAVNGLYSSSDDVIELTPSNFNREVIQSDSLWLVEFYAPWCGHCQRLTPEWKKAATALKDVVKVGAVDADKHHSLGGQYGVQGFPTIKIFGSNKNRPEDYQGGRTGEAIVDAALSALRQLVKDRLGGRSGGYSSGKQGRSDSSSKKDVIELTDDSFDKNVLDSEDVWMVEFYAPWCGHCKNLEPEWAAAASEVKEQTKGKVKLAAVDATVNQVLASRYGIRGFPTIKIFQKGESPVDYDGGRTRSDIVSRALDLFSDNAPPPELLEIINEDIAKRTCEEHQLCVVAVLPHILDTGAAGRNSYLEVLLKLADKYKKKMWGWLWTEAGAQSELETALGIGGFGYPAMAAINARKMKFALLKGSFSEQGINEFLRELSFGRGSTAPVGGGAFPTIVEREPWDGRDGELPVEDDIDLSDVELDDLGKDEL

[4] = Antiplatelet aggregation activity in human Platelet assessed as inhibition of thrombin- induced aggregation preincubated for 3 mins followed by thrombin addition by turbidimetric aggregometry
HUVEC = experiment: Cytotoxicity against HUVEC cells assessed as reduction in cell viability at 5 to 40 uM incubated for 24 hrs by MTT assay; assay type: toxicity, cell-based; conditions: human, dose 5-40 µM
[5] = biological target: T1, Protein disulfide-isomerase; experiment: Inhibition of recombinant PDI (unknown origin) at 0.2 uM preincubated for 1 hrs and measured after 10 fold dilution by absorbance based analysis
Target sequence in this assay (P07237 18-508 limits assumed): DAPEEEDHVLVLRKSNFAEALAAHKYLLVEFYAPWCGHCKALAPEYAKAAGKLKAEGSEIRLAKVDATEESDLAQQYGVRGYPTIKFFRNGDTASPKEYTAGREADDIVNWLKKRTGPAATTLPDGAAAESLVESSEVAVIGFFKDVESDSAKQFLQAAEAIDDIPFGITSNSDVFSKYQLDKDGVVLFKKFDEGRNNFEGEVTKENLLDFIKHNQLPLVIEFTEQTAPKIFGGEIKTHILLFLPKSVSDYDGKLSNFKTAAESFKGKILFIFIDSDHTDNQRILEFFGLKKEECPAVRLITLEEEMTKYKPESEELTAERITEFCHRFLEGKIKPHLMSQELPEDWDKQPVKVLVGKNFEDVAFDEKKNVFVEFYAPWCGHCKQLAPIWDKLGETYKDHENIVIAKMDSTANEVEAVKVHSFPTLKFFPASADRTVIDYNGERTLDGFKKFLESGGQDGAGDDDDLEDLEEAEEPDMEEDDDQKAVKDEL

HepG2 = experiment: Antiproliferative activity against human HepG2 cells assessed as reduction in cell viability at 5 to 40 uM incubated for 24 hrs by MTT assay; assay type: functional, cell-based; conditions: dose 5-40 µM
A549 = experiment: Antiproliferative activity against human A549 cells assessed as reduction in cell viability at 5 to 40 uM incubated for 24 hrs by MTT assay; assay type: functional, cell-based; conditions: dose 5-40 µM
[6] = biological target: T3, Protein disulfide-isomerase A3 (Homo sapiens, UniProt P30101); experiment: Inhibition of recombinant PDIA3 (unknown origin) preincubated for 1 hrs followed by bovine insulin addition and measured after 80 mins by absorbance based reductase assay
T3 sequence (P30101 whole entry): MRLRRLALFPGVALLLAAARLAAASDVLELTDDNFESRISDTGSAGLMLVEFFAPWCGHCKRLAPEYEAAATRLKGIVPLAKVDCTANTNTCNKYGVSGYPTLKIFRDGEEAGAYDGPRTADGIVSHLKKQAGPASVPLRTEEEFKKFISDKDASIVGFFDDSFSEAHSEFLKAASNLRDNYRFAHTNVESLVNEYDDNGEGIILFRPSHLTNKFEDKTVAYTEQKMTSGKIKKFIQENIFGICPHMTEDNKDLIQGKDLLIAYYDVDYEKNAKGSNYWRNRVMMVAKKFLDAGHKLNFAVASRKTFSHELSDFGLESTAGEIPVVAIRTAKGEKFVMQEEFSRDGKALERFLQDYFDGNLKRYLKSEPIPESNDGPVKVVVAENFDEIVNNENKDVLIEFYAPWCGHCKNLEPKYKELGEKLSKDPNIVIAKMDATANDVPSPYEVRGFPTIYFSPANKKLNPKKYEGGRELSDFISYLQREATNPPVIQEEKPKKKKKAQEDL

[7] = Antiplatelet aggregation activity in human Platelet assessed as inhibition of collagen- induced aggregation preincubated for 3 mins followed by collagen addition by turbidimetric aggregometry
MDA-MB-231 = experiment: Antiproliferative activity against human MDA-MB-231 cells assessed as reduction in cell viability at 5 to 40 uM incubated for 24 hrs by MTT assay; assay type: functional, cell-based; conditions: dose 5-40 µM
[8] = biological target: T1, Protein disulfide-isomerase; experiment: Inhibition of PDI in human Platelet assessed as reduction in […] activation by measuring decrease in PAC-1 binding at 5 uM preincubated for 3 mins followed by U46619 addition and measured after 5 mins by flow cytometric analysis; assay type: cell-based; conditions: time 8.0 min
Target sequence in this assay (P07237 18-508 limits assumed): as the sequence (P07237 18-508 limits assumed) above

Blood [9] = experiment: Antithrombotic activity in citrated-human whole blood assessed as reduction in coverage area of thrombi on collagen-coated chamber at 5 uM incubated for 10 mins in presence of DiOC6(3) by fluorescence microscopic analysis relative to control; assay type: functional; parameters: scale not given: the % may be the effect or the level left
[10] = Antiplatelet aggregation activity in human Platelet assessed as reduction in U46619-induced secretion of p-selectin at 5 uM preincubated for 3 mins followed by U46619 addition and measured after 5 mins by flow cytometric analysis relative to control; assay type: functional; parameters: scale not given: the % may be the effect or the level left; conditions: time 8 min
Platelet [11] = experiment: Antiplatelet aggregation activity in human Platelet assessed as inhibition of U46619- induced aggregation at 50 to 200 uM preincubated for 3 mins followed by U46619 addition by turbidimetric aggregometry; assay type: functional, cell-based; conditions: dose 50-200 µM
Blood [12] = experiment: Antithrombotic activity in citrated-human whole blood assessed as reduction in coverage area of thrombi on collagen-coated chamber at 200 uM incubated for 10 mins in presence of DiOC6(3) by fluorescence microscopic analysis relative to control; assay type: functional; parameters: scale not given: the % may be the effect or the level left
Platelet [13] = experiment: Antiplatelet aggregation activity in human Platelet assessed as inhibition of thrombin- induced aggregation at 50 to 200 uM preincubated for 3 mins followed by thrombin addition by turbidimetric aggregometry; assay type: functional, cell-based; conditions: dose 50-200 µM
Blood [14] = experiment: Antithrombotic activity in citrated-human whole blood assessed as reduction in coverage area of thrombi on collagen-coated chamber at 100 uM incubated for 10 mins in presence of DiOC6(3) by fluorescence microscopic analysis relative to control; assay type: functional; parameters: scale not given: the % may be the effect or the level left
[15] = biological target: T1, Protein disulfide-isomerase; experiment: Irreversible inhibition of recombinant PDI (unknown origin) at 4 uM preincubated for 1 hrs and measured after 10 fold dilution by absorbance based analysis
Target sequence in this assay (P07237 18-508 limits assumed): as the sequence (P07237 18-508 limits assumed) above

| Structure (SMILES) | IC50 [1] | other results |
| --- | --- | --- |
| COC(=O)c1cc(OC)c(OC)cc1NC(=O)C1CO1 (stereo not given) | > 40000 nM |  |
| C=C(F)C(=O)Nc1cc(OC)c(OC)cc1C(=O)OC | > 40000 nM |  |
| C=CS(=O)(=O)Oc1cc(OC)c(OC)cc1C(=O)OC | 1100 nM |  |
| C#CC(=O)Nc1cc(OC)c(OC)cc1C(=O)OC | 1600 nM |  |
| C=CC(=O)Nc1cc(OC)c(OC)cc1C(=O)OC | > 40000 nM |  |
| CC(=O)Oc1ccccc1C(=O)O [ASPIRIN] |  | Activity (Platelet [11]): inactive; Activity (Blood [12]): 46%; Activity (Platelet [13]): inactive; IC50 [7]: 74.5 µM; Activity (Blood [14]): 21% |
| COC(=O)c1cc(OC)c(OC)cc1NC(=O)CCl | > 40000 nM |  |
| COC(=O)c1cc(OC)c(OC)cc1NC(=O)C12CC1C2 (stereo not given) | > 40000 nM |  |
| C=C(C(=O)Nc1cc(OC)c(OC)cc1C(=O)OC)C(F)(F)F | 2200 nM |  |
| COC(=O)/C=C/C(=O)Nc1cc(OC)c(OC)cc1C(=O)OC | > 40000 nM |  |
| C#CC(=O)N(c1ccc(OC)c(OC)c1)C(C(=O)NCC(=O)OCC)c1cccs1 (stereo not given) | 12400 nM | inhibition [15]: Active; IC50 [3]: > 40 µM; IC50 [6]: 28.1 µM |
| C=CS(=O)(=O)Nc1cc(OC)c(OC)cc1C(=O)OC | 19100 nM |  |

Second part, led by results:

| IC50 [1] | Structure (SMILES) | other results |
| --- | --- | --- |
| 480 nM | C=C(C(=O)Nc1ccc(C(=O)c2ccccc2)cc1)C(F)(F)F | IC50 [2]: 3.5 µM; IC50 [3]: 7.1 µM; IC50 [4]: 25.5 µM; Activity (HUVEC): Non-toxic; inhibition [5]: Not active; Compound Exhibited Reversible Binding Mode With Pdi; Activity (HepG2): inactive; Activity (A549): inactive; IC50 [6]: 1.52 µM; IC50 [7]: 13 µM; Activity (MDA-MB-231): inactive; inhibition [8]: Active; Activity (Blood [9]): 36%; Activity [10]: 52% |
| 3000 nM | C=C(C(=O)Nc1ccc(OC)c(OC)c1)C(F)(F)F |  |
| 560 nM | C=C(C(=O)Nc1ccc(Cc2ccccc2)cc1)C(F)(F)F |  |
| 1630 nM | C=C(C(=O)Nc1ccc(-c2ccccc2)cc1)C(F)(F)F |  |
| 580 nM | C=C(C(=O)Nc1cc(OC)c(OC)c(OC)c1)C(F)(F)F |  |
| 1230 nM | C=C(C(=O)Nc1ccc(OCCC)c(OC)c1)C(F)(F)F |  |
| 1210 nM | C=C(C(=O)Nc1ccc(CN2CCOCC2)cc1)C(F)(F)F |  |
| 870 nM | C=C(C(=O)Nc1ccc(C(C)(C)C)cc1)C(F)(F)F |  |
| 680 nM | C=C(C(=O)Nc1ccc(C(F)(F)F)cc1)C(F)(F)F |  |
| 840 nM | C=C(C(=O)Nc1ccc(N(CC)CC)cc1)C(F)(F)F |  |
| 1620 nM | C=C(C(=O)Nc1ccc(OCC)c(OC)c1)C(F)(F)F |  |
| 810 nM | C=C(C(=O)Nc1ccc(OCc2ccccc2)c(OC)c1)C(F)(F)F |  |
| 2910 nM | C=C(C(=O)Nc1ccc2c(c1)OCO2)C(F)(F)F |  |
